Data taken from patent US8093243B2, “Hepatitis C virus inhibitors” (Bristol-Myers Squibb Company, priority 2008, dated 2012).
Like-named read-outs stand apart in the source and are kept apart here.

Tested on: HCV 1b genotype
Test: HCV replicon assay (HCV-neo replicon cells)
Type: cell-based
Settings: Hepatitis C virus, HCV 1b genotype replicon
Protocol: An HCV Replion assay was utilized in the present disclosure, and was prepared, conducted and validated as described in commonly owned PCT/US2006/022197 and in O'Boyle et. al. Antimicrot Agents Chemother. 2005 April; 49(4):1346-53.
HCV-neo replicon cells were used to test the currently described compound series as well as cells resistant to compound A containing mutations in NS5A (described in application PCT/US2006/022197). The compounds tested were determined to have more than 10-fold less inhibitory activity on cells containing the mutation than wild-type cells indicating a related mechanism of action between the two compound series. Thus, the compounds of the present disclosure can be effective to inhibit the function of the HCV NS5A protein and are understood to be as effective in combinations as previously described in application PCT/US2006/022197 and commonly owned WO 04/014852. Further, the compounds of the present disclosure can be effective against the HCV 1b genotype. It should also be understood that the compounds of the present disclosure can inhibit multiple genotypes of HCV. […] In one embodiment compounds of the present disclosure are active against the 1a, 1b, 2a, 2b, 3a, 4a, and 5a genotypes. Activity ranges are as follows: A=501 nM-1 μM; B 1-500 nM; C=100-999 pM.

CC(C)(C)OC(=O)N1CCC[C@H]1c1ncc(-c2ccc(-c3ccc4ncnc(Nc5ccc(N6CCOCC6)cc5)c4c3)cc2)[nH]1 [Example 1 step e]
EC50 (activity range class): 0.001 to 0.5 µM

c1nc(Nc2ccc(N3CCOCC3)cc2)c2cc(-c3ccc(-c4cnc([C@@H]5CCCN5)[nH]4)cc3)ccc2n1 [Example 1 step f]
EC50 (read-out: EC50 Range/Value): 1.51 µM

COC(=O)N[C@H](C(=O)N1CCC[C@H]1c1ncc(-c2ccc(-c3ccc4ncnc(Nc5ccc(N6CCOCC6)cc5)c4c3)cc2)[nH]1)C(C)C [Example 1]
EC50 (activity range class): 0.001 to 0.5 µM

CC(=O)N1CCC[C@H]1c1ncc(-c2ccc(-c3ccc4ncnc(Nc5ccc(N6CCOCC6)cc5)c4c3)cc2)[nH]1 [Example 6]
EC50 (activity range class): 0.501 to 1 µM
